# Results as given in US20060252807A1, “Novel ortho-terphenyl inhibitors of p38 kinase and methods of treating inflammatory disorders” (Kalypsys, Inc., priority 2005, published 2006).
# Molecular target: T1, active p38 alpha enzyme (Upstate Biotechnology) (Homo sapiens, UniProt Q16539)
# T1 construct: purchased Upstate Biotechnology
# Experiment: p38α biochemical assay (ATP turnover, luminescent detection, Cambrex PKlight)
# Details: p38α kinase; Table 1 Biological Activity
# Procedure, shortened: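 Luminescent ATP-depletion readout measures total ATP turnover by p38α phosphorylating whole MapkapK2 protein. ATP 1.4 uM final; 30C, 2 h. Compounds delivered from DMSO.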
# T1 sequence (Q16539 whole entry): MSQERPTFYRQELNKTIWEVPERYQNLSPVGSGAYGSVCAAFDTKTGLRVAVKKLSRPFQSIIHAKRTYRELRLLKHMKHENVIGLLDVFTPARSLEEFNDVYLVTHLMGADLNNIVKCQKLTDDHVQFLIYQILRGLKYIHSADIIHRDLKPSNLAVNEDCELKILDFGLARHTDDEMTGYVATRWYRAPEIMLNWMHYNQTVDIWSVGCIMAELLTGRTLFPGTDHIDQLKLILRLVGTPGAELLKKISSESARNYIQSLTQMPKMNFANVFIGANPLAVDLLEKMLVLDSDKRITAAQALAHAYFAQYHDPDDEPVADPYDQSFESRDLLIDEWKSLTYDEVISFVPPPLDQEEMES
row,SMILES,IC50 [µM]
1,Cc1nc(-c2ccc(F)cc2)c(-c2nc(C(=O)Nc3ccc(F)cc3F)cs2)s1 [Example 1979],> 1
2,Cc1nc(-c2ccc(F)cc2)c(-c2nc(C(=O)Nc3ccc4c(c3)CCC4)cs2)s1 [Example 1981],> 1
3,CC(=O)c1ccc(NC(=O)c2csc(-c3sc(C)nc3-c3ccc(F)cc3)n2)cc1 [Example 1984],> 1
4,Cc1cc(C)c(NC(=O)c2csc(-c3sc(C)nc3-c3ccc(F)cc3)n2)c(C)c1 [Example 1986],> 1
5,Cc1nc(-c2ccc(F)cc2)c(-c2nc(C(=O)Nc3ccc4c(c3)OCO4)cs2)s1 [Example 1987],≤ 1
6,CCOc1cccc(NC(=O)c2csc(-c3sc(C)nc3-c3ccc(F)cc3)n2)c1 [Example 1989],> 1
7,CCOc1ccccc1NC(=O)c1csc(-c2sc(C)nc2-c2ccc(F)cc2)n1 [Example 1990],> 1
8,Cc1nc(-c2ccc(F)cc2)c(-c2nc(C(=O)Nc3cccc(Cl)c3C)cs2)s1 [Example 1992],≤ 1
9,Cc1nc(-c2ccc(F)cc2)c(-c2nc(C(=O)Nc3ccc(C)c(Cl)c3)cs2)s1 [Example 1993],> 1
10,Cc1nc(-c2ccc(F)cc2)c(-c2nc(C(=O)Nc3cnc4ccccc4c3)cs2)s1 [Example 1994],≤ 1
11,Cc1nc(-c2ccc(F)cc2)c(-c2nc(C(=O)NC3CCCc4ccccc43)cs2)s1 (stereo not shown) [Example 1996],> 1
12,Cc1nc(-c2ccc(F)cc2)c(-c2nc(C(=O)Nc3ccccc3C(C)(C)C)cs2)s1 [Example 1997],> 1
13,Cc1nc(-c2ccc(F)cc2)c(-c2nc(C(=O)Nc3c(C)cccc3C(C)C)cs2)s1 [Example 1998],> 1
14,Cc1nc(-c2ccc(F)cc2)c(-c2nc(C(=O)Nc3ccc4ncsc4c3)cs2)s1 [Example 1999],> 1
15,CC(=O)Nc1ccc(NC(=O)c2csc(-c3sc(C)nc3-c3ccc(F)cc3)n2)cc1 [Example 2000],≤ 1
16,CC(=O)Nc1ccc(NC(=O)c2csc(-c3sc(C)nc3-c3ccc(F)cc3)n2)cn1 [Example 2001],≤ 1
17,Cc1nc(-c2ccc(F)cc2)c(-c2nc(C(=O)Nc3ccc4c(c3)OCCO4)cs2)s1 [Example 2002],≤ 1
18,COc1ccc(NC(=O)c2csc(-c3sc(C)nc3-c3ccc(F)cc3)n2)cc1OC [Example 2003],> 1
19,Cc1nc(-c2ccc(F)cc2)c(-c2nc(C(=O)Nc3ccc(C(F)(F)F)cc3)cs2)s1 [Example 2005],> 1
20,Cc1nc(-c2ccc(F)cc2)c(-c2nc(C(=O)Nc3ccc(Cl)c(Cl)c3)cs2)s1 [Example 2007],> 1
21,Cc1nc(-c2ccc(F)cc2)c(-c2nc(C(=O)Nc3ccc(N(C)C)cc3)cs2)s1 [Example 2009],≤ 1
22,Cc1nc(-c2ccc(F)cc2)c(-c2nc(C(=O)Nc3ccccc3-c3ccccc3)cs2)s1 [Example 2010],≤ 1

row,SMILES,IC50 [µM]
1,Cc1nc(-c2ccc(F)cc2)c(-c2nc(C(=O)Nc3ccc(OC(F)(F)F)cc3)cs2)s1 [Example 2011],> 1
2,Cc1nc(-c2ccc(F)cc2)c(-c2nc(C(=O)Nc3ccccc3C(=O)c3ccccc3)cs2)s1 [Example 2018],> 1
3,Cc1nc(-c2ccc(F)cc2)c(-c2nc(C(=O)Nc3ccccc3COc3ccccc3)cs2)s1 [Example 2019],> 1
4,COc1ccc(-c2ccccc2)cc1NC(=O)c1csc(-c2sc(C)nc2-c2ccc(F)cc2)n1 [Example 2020],> 1
5,Cc1nc(-c2ccc(F)cc2)c(-c2nc(C(=O)Nc3ncccc3OCc3ccccc3)cs2)s1 [Example 2021],> 1
6,Cc1nc(-c2ccc(F)cc2)c(-c2nc(C(=O)Nc3cc(C(F)(F)F)ccc3C(F)(F)F)cs2)s1 [Example 2022],> 1
7,CNC(=O)c1csc(-c2c(-c3ccc(F)cc3)n[nH]c2C2CCNCC2)n1 [Example 2031],≤ 1
8,N#CCNC(=O)c1csc(-c2c(-c3ccc(F)cc3)n[nH]c2C2CCNCC2)n1 [Example 2032],≤ 1
9,O=C(NC1CC1)c1csc(-c2c(-c3ccc(F)cc3)n[nH]c2C2CCNCC2)n1 [Example 2033],≤ 1
10,CCCNC(=O)c1csc(-c2c(-c3ccc(F)cc3)n[nH]c2C2CCNCC2)n1 [Example 2034],> 1
11,NCCNC(=O)c1csc(-c2c(-c3ccc(F)cc3)n[nH]c2C2CCNCC2)n1 [Example 2035],> 1
12,O=C(NCCO)c1csc(-c2c(-c3ccc(F)cc3)n[nH]c2C2CCNCC2)n1 [Example 2036],≤ 1
13,N#CCCNC(=O)c1csc(-c2c(-c3ccc(F)cc3)n[nH]c2C2CCNCC2)n1 [Example 2037],> 1
14,CC(C)CNC(=O)c1csc(-c2c(-c3ccc(F)cc3)n[nH]c2C2CCNCC2)n1 [Example 2040],> 1
15,O=C(NCCCO)c1csc(-c2c(-c3ccc(F)cc3)n[nH]c2C2CCNCC2)n1 [Example 2041],≤ 1
16,CC(CO)NC(=O)c1csc(-c2c(-c3ccc(F)cc3)n[nH]c2C2CCNCC2)n1 (stereo not shown) [Example 2042],≤ 1
17,CCC(CO)NC(=O)c1csc(-c2c(-c3ccc(F)cc3)n[nH]c2C2CCNCC2)n1 (stereo not shown) [Example 2051],≤ 1
18,O=C(NCCCCO)c1csc(-c2c(-c3ccc(F)cc3)n[nH]c2C2CCNCC2)n1 [Example 2053],> 1
19,O=C(NCc1ccco1)c1csc(-c2c(-c3ccc(F)cc3)n[nH]c2C2CCNCC2)n1 [Example 2054],> 1
20,O=C(NCC1CCCO1)c1csc(-c2c(-c3ccc(F)cc3)n[nH]c2C2CCNCC2)n1 (stereo not shown) [Example 2056],> 1
21,CC(C)CC(C)NC(=O)c1csc(-c2c(-c3ccc(F)cc3)n[nH]c2C2CCNCC2)n1 (stereo not shown) [Example 2058],> 1
22,O=C(NC1CONC1=O)c1csc(-c2c(-c3ccc(F)cc3)n[nH]c2C2CCNCC2)n1 (stereo not shown) [Example 2059],> 1

# Further lines, results first:
row,IC50 [µM],SMILES
1,> 1,Cc1nc(-c2ccc(F)cc2)c(-c2nc(C(=O)Nc3ccccc3C(C)C)cs2)s1 [Example 1982]
2,≤ 1,CC(=O)c1cccc(NC(=O)c2csc(-c3sc(C)nc3-c3ccc(F)cc3)n2)c1 [Example 1983]
3,> 1,CCc1cccc(C)c1NC(=O)c1csc(-c2sc(C)nc2-c2ccc(F)cc2)n1 [Example 1985]
4,≤ 1,COc1ccc(NC(=O)c2csc(-c3sc(C)nc3-c3ccc(F)cc3)n2)c(C)c1 [Example 1988]
5,> 1,CSc1ccccc1NC(=O)c1csc(-c2sc(C)nc2-c2ccc(F)cc2)n1 [Example 1991]
6,> 1,Cc1nc(-c2ccc(F)cc2)c(-c2nc(C(=O)Nc3cc(F)c(F)cc3F)cs2)s1 [Example 1995]
7,> 1,Cc1nc(-c2ccc(F)cc2)c(-c2nc(C(=O)Nc3ccccc3-n3cccc3)cs2)s1 [Example 2004]
8,> 1,Cc1nc(-c2ccc(F)cc2)c(-c2nc(C(=O)Nc3cccc(C(F)(F)F)c3)cs2)s1 [Example 2006]
9,≤ 1,Cc1nc(-c2ccc(F)cc2)c(-c2nc(C(=O)Nc3c(C)cccc3C(C)(C)C)cs2)s1 [Example 2008]
10,> 1,Cc1nc(-c2ccc(F)cc2)c(-c2nc(C(=O)Nc3c(C(C)C)cccc3C(C)C)cs2)s1 [Example 2012]
11,> 1,Cc1nc(-c2ccc(F)cc2)c(-c2nc(C(=O)Nc3ccc(F)cc3C(F)(F)F)cs2)s1 [Example 2013]
12,> 1,Cc1nc(-c2ccc(F)cc2)c(-c2nc(C(=O)Nc3cc(C(F)(F)F)ccc3F)cs2)s1 [Example 2014]
13,> 1,Cc1nc(-c2ccc(F)cc2)c(-c2nc(C(=O)Nc3ccc(F)c(C(F)(F)F)c3)cs2)s1 [Example 2015]
14,> 1,CCOc1ccc(OCC)c(NC(=O)c2csc(-c3sc(C)nc3-c3ccc(F)cc3)n2)c1 [Example 2016]
15,> 1,Cc1nc(-c2ccc(F)cc2)c(-c2nc(C(=O)Nc3cc(Cl)c(Cl)c(Cl)c3)cs2)s1 [Example 2017]
16,> 1,Cc1nc(-c2ccc(F)cc2)c(-c2nc(C(=O)Nc3cc(C(F)(F)F)cc(C(F)(F)F)c3)cs2)s1 [Example 2023]

row,IC50 [µM],SMILES
1,≤ 1,Cc1nc(-c2ccc(F)cc2)c(-c2nc(C(=O)Nc3ccc(C(F)(F)F)cc3C(F)(F)F)cs2)s1 [Example 2024]
2,≤ 1,O=C(NCC1CC1)c1csc(-c2c(-c3ccc(F)cc3)n[nH]c2C2CCNCC2)n1 [Example 2029]
3,> 1,O=C(O)c1csc(-c2c(-c3ccc(F)cc3)n[nH]c2C2CCNCC2)n1 [Example 2030]
4,≤ 1,O=C(NC1CCC1)c1csc(-c2c(-c3ccc(F)cc3)n[nH]c2C2CCNCC2)n1 [Example 2038]
5,≤ 1,CCC(C)NC(=O)c1csc(-c2c(-c3ccc(F)cc3)n[nH]c2C2CCNCC2)n1 (stereo not shown) [Example 2039]
6,≤ 1,COCCNC(=O)c1csc(-c2c(-c3ccc(F)cc3)n[nH]c2C2CCNCC2)n1 [Example 2043]
7,≤ 1,O=C(NC1CCCC1)c1csc(-c2c(-c3ccc(F)cc3)n[nH]c2C2CCNCC2)n1 [Example 2044]
8,≤ 1,CCCC(C)NC(=O)c1csc(-c2c(-c3ccc(F)cc3)n[nH]c2C2CCNCC2)n1 (stereo not shown) [Example 2045]
9,> 1,CCC(C)CNC(=O)c1csc(-c2c(-c3ccc(F)cc3)n[nH]c2C2CCNCC2)n1 (stereo not shown) [Example 2046]
10,> 1,CC(C)C(C)NC(=O)c1csc(-c2c(-c3ccc(F)cc3)n[nH]c2C2CCNCC2)n1 (stereo not shown) [Example 2047]
11,> 1,CC(C)CCNC(=O)c1csc(-c2c(-c3ccc(F)cc3)n[nH]c2C2CCNCC2)n1 [Example 2048]
12,> 1,CN(C)CCNC(=O)c1csc(-c2c(-c3ccc(F)cc3)n[nH]c2C2CCNCC2)n1 [Example 2049]
13,> 1,COCC(C)NC(=O)c1csc(-c2c(-c3ccc(F)cc3)n[nH]c2C2CCNCC2)n1 (stereo not shown) [Example 2050]
14,> 1,CCC(CO)NC(=O)c1csc(-c2c(-c3ccc(F)cc3)n[nH]c2C2CCNCC2)n1 (stereo not shown) [Example 2052]
15,> 1,O=C(NC1CCCCC1)c1csc(-c2c(-c3ccc(F)cc3)n[nH]c2C2CCNCC2)n1 [Example 2055]
16,> 1,CC(C)(C)CCNC(=O)c1csc(-c2c(-c3ccc(F)cc3)n[nH]c2C2CCNCC2)n1 [Example 2057]
